Experimental data from PubChem BioAssay AID330 (DTP/NCI, 2004).
Where “and” joins values, the source holds several entries; their conditions need not be identical. Identical values can stand only once. Inconclusive results and toxic doses are left out.

Test system: P388 leukemia ip, CD2F1 mice, survival T/C
Assay: NCI In Vivo Anticancer Drug Screen. Data for tumor model P388 Leukemia (intraperitoneal) in CD2F1 (CDF1) mice
Details: endpoint: median survival time, higher = longer survival
Method in brief: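 Mice carrying the transplanted tumor received test compound or vehicle. Survival was recorded in each group, and the value is the treated-group measurement divided by that of the vehicle-treated control group.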

[1] = dose: 25.0 mg/kg/injection, schedule: Q01DX009 (ip), vehicle: saline with Tween-80
[2] = dose: 50.0 mg/kg/injection, schedule: Q01DX009 (ip), vehicle: saline with Tween-80
[3] = dose: 100.0 mg/kg/injection, schedule: Q01DX009 (ip), vehicle: saline with Tween-80
[4] = dose: 200.0 mg/kg/injection, schedule: Q01DX009 (ip), vehicle: saline with Tween-80
[5] = dose: 12.5 mg/kg/injection, schedule: Q01DX009 (ip), vehicle: saline
[6] = dose: 25.0 mg/kg/injection, schedule: Q01DX009 (ip), vehicle: saline
[7] = dose: 50.0 mg/kg/injection, schedule: Q01DX005 (ip), vehicle: saline
[8] = dose: 200.0 mg/kg/injection, schedule: Q01DX005 (ip), vehicle: saline
[9] = dose: 60.0 mg/kg/injection, schedule: Q01DX005 (ip), vehicle: saline with Tween-80
[10] = dose: 120.0 mg/kg/injection, schedule: Q01DX005 (ip), vehicle: saline with Tween-80
[11] = dose: 240.0 mg/kg/injection, schedule: Q01DX005 (ip), vehicle: saline with Tween-80
[12] = dose: 50.0 mg/kg/injection, schedule: Q01DX005 (ip), vehicle: Klucel (hydroxypropylcellulose) (HPC)
[13] = dose: 100.0 mg/kg/injection, schedule: Q01DX005 (ip), vehicle: Klucel (hydroxypropylcellulose) (HPC)
[14] = dose: 200.0 mg/kg/injection, schedule: Q01DX005 (ip), vehicle: Klucel (hydroxypropylcellulose) (HPC)
[15] = dose: 50.0 mg/kg/injection, schedule: Q01DX009 (ip), vehicle: saline
[16] = dose: 100.0 mg/kg/injection, schedule: Q01DX009 (ip), vehicle: saline
[17] = dose: 50.0 mg/kg/injection, schedule: Q01DX005 (ip), vehicle: saline with Tween-80
[18] = dose: 100.0 mg/kg/injection, schedule: Q01DX005 (ip), vehicle: saline with Tween-80
[19] = dose: 12.5 mg/kg/injection, schedule: Q01DX005 (ip), vehicle: saline with Tween-80
[20] = dose: 25.0 mg/kg/injection, schedule: Q01DX005 (ip), vehicle: saline with Tween-80

CCCCCCCCCCCCCCCCCSCc1ccc(Nc2ccccc2)cc1
T/C [1]: 108 % of control
T/C (dose: 50.0 mg/kg/injection, schedule: Q01DX009 (ip), vehicle: other): 116 % of control
T/C [2]: 103 % of control and 108 % of control
T/C (dose: 100.0 mg/kg/injection, schedule: Q01DX009 (ip), vehicle: other): 116 % of control
T/C [3]: 103 % of control
T/C (dose: 200.0 mg/kg/injection, schedule: Q01DX009 (ip), vehicle: other): 118 % of control
T/C [4]: 116 % of control and 93 % of control

O=C(Cc1ccccc1)C(Br)C(Br)c1ccccc1 (centres undefined)
T/C (dose: 6.25 mg/kg/injection, schedule: Q01DX009 (ip), vehicle: saline with Tween-80): 100 % of control
T/C (dose: 12.5 mg/kg/injection, schedule: Q01DX009 (ip), vehicle: saline with Tween-80): 118 % of control
T/C [1]: 113 % of control

CSCCC(NC=O)C(=O)O (centres undefined)
T/C (dose: 3.12 mg/kg/injection, schedule: Q01DX009 (ip), vehicle: saline): 88 % of control
T/C (dose: 6.25 mg/kg/injection, schedule: Q01DX009 (ip), vehicle: saline): 91 % of control
T/C [5]: 87 % of control
T/C [6]: 92 % of control
T/C [7]: 98 % of control
T/C (dose: 100.0 mg/kg/injection, schedule: Q01DX005 (ip), vehicle: saline): 98 % of control
T/C [8]: 98 % of control

CCCCCCCCCCCCCCCC(=O)O
T/C [2]: 107 % of control
T/C [3]: 102 % of control
T/C [4]: 102 % of control

CCCSC(=O)Nc1cc(OC)ccc1OC
T/C [9]: 98 % of control
T/C [10]: 98 % of control
T/C [11]: 104 % of control

O=S(O)CCCCSSCC(O)CO (centres undefined)
T/C (dose: 30.0 mg/kg/injection, schedule: Q01DX005 (ip), vehicle: saline): 101 % of control
T/C [7]: 111 % of control
T/C (dose: 60.0 mg/kg/injection, schedule: Q01DX005 (ip), vehicle: saline): 115 % of control
T/C (dose: 120.0 mg/kg/injection, schedule: Q01DX005 (ip), vehicle: saline): 115 % of control
T/C [8]: 111 % of control
T/C (dose: 240.0 mg/kg/injection, schedule: Q01DX005 (ip), vehicle: saline): 117 % of control

C(=N\Nc1nnc2c(n1)[nH]c1ccccc12)/c1ccccc1
T/C (dose: 100.0 mg/kg/injection, schedule: Q04DX002 (ip), vehicle: saline with Tween-80): 89 % of control
T/C (dose: 200.0 mg/kg/injection, schedule: Q04DX002 (ip), vehicle: saline with Tween-80): 90 % of control
T/C (dose: 400.0 mg/kg/injection, schedule: Q04DX002 (ip), vehicle: saline with Tween-80): 98 % of control

COc1ccc(C(c2cc3c(cc2O)OCO3)N2CCCCC2)cc1 (centres undefined)
T/C [9]: 114 % of control
T/C [10]: 112 % of control
T/C [11]: 121 % of control

COC1=C(OC)S[C@H]2[C@@H]3C[C@@H]([C@H]4CC=C[C@@H]34)[C@H]2S1
T/C [12]: 100 % of control
T/C [13]: 103 % of control
T/C [14]: 97 % of control

C[N+]12CCN(CC1)CC2
T/C (dose: 100.0 mg/kg/injection, schedule: Q04DX003 (ip), vehicle: saline): 104 % of control
T/C (dose: 200.0 mg/kg/injection, schedule: Q04DX003 (ip), vehicle: saline): 95 % of control
T/C (dose: 400.0 mg/kg/injection, schedule: Q04DX003 (ip), vehicle: saline): 100 % of control

O=C(Nc1ccc(Cl)cc1)Nc1nnc(-c2ccccc2Br)o1
T/C [9]: 105 % of control
T/C [10]: 94 % of control
T/C [11]: 95 % of control

CC(=O)SCN1CCCCC1
T/C [5]: 108 % of control
T/C [6]: 108 % of control and 112 % of control
T/C (dose: 25.0 mg/kg/injection, schedule: Q04DX002 (ip), vehicle: saline): 110 % of control
T/C [15]: 102 % of control and 118 % of control
T/C (dose: 50.0 mg/kg/injection, schedule: Q04DX002 (ip), vehicle: saline): 112 % of control
T/C [16]: 108 % of control
T/C (dose: 100.0 mg/kg/injection, schedule: Q04DX002 (ip), vehicle: saline): 114 % of control and 116 % of control

O=C1Oc2ccccc2[C@@H]2[C@H]1[C@@H]1C(=O)Oc3ccccc3[C@@H]12
T/C [12]: 97 % of control
T/C [13]: 97 % of control
T/C [14]: 100 % of control

CN1C(C)(C)CC2=C(c3ccccc3)c3ccccc3C2C1(C)C (centres undefined)
T/C [17]: 106 % of control
T/C [18]: 100 % of control
T/C (dose: 200.0 mg/kg/injection, schedule: Q01DX005 (ip), vehicle: saline with Tween-80): 102 % of control

CCOC(=O)c1nc2nc3cc(OC)c(OC)cc3cc2c(=O)[nH]1
T/C (dose: 25.0 mg/kg/injection, schedule: Q01DX005 (ip), vehicle: Klucel (hydroxypropylcellulose) (HPC)): 93 % of control
T/C [12]: 87 % of control
T/C [13]: 86 % of control and 89 % of control
T/C [14]: 91 % of control

CN(C)C1CC/C=C/CC/C=C/CC[C@H]1O (mixture of isomers)
T/C [19]: 100 % of control
T/C [20]: 98 % of control
T/C [17]: 99 % of control and 100 % of control

CSC(SC)=C1C(=O)NC(Cc2ccccc2)C1=O (centres undefined)
T/C (dose: 6.25 mg/kg/injection, schedule: Q01DX005 (ip), vehicle: saline with Tween-80): 104 % of control
T/C [19]: 112 % of control
T/C [20]: 119 % of control

C=C1C2CC[C@@H]3C45C=NC[C@@](C)(CCC4)[C@@H]5CCC3(C2)[C@@H]1OC(C)=O
T/C (dose: 4.0 mg/kg/injection, schedule: Q01DX009 (ip), vehicle: Klucel (hydroxypropylcellulose) (HPC)): 94 % of control
T/C (dose: 8.0 mg/kg/injection, schedule: Q01DX009 (ip), vehicle: Klucel (hydroxypropylcellulose) (HPC)): 94 % of control
T/C (dose: 16.0 mg/kg/injection, schedule: Q01DX009 (ip), vehicle: Klucel (hydroxypropylcellulose) (HPC)): 95 % of control
T/C (dose: 32.0 mg/kg/injection, schedule: Q01DX009 (ip), vehicle: Klucel (hydroxypropylcellulose) (HPC)): 96 % of control

CC1CN=C(c2ccc(NC(=O)c3ccc(C(=O)Nc4ccc(C5=NCC(C)N5)cc4)c(N)c3)cc2)N1 (centres undefined)
T/C (dose: 0.5 mg/kg/injection, schedule: Q04DX003 (ip), vehicle: saline): 100 % of control
T/C (dose: 1.0 mg/kg/injection, schedule: Q04DX003 (ip), vehicle: saline): 110 % of control
T/C (dose: 2.0 mg/kg/injection, schedule: Q04DX003 (ip), vehicle: saline): 120 % of control
T/C (dose: 2.5 mg/kg/injection, schedule: Q01DX009 (ip), vehicle: saline with Tween-80): 195 % of control
T/C (dose: 5.0 mg/kg/injection, schedule: Q01DX009 (ip), vehicle: saline with Tween-80): 255 % of control
T/C (dose: 10.0 mg/kg/injection, schedule: Q01DX009 (ip), vehicle: saline with Tween-80): 170 % of control
T/C (dose: 10.0 mg/kg/injection, schedule: Q04DX003 (ip), vehicle: saline with Tween-80): 159 % of control

COC(=O)CC(=O)c1ccc(OC(C)C)cc1
T/C [3]: 100 % of control
T/C (dose: 100.0 mg/kg/injection, schedule: Q04DX003 (ip), vehicle: saline with Tween-80): 100 % of control
T/C [4]: 100 % of control
T/C (dose: 200.0 mg/kg/injection, schedule: Q04DX003 (ip), vehicle: saline with Tween-80): 95 % of control
T/C (dose: 400.0 mg/kg/injection, schedule: Q01DX009 (ip), vehicle: saline with Tween-80): 100 % of control
T/C (dose: 400.0 mg/kg/injection, schedule: Q04DX003 (ip), vehicle: saline with Tween-80): 100 % of control

N/N=C1/C=Cc2cccc3cccc1c23
T/C [17]: 89 % of control
T/C [18]: 89 % of control

CN=C1OC2(c3ccccc3)C3=C(OC(=NC)N2C)C(=O)OC3(c2ccccc2)N1C (centres undefined)
T/C (dose: 60.0 mg/kg/injection, schedule: Q01DX005 (ip), vehicle: Klucel (hydroxypropylcellulose) (HPC)): 98 % of control
T/C (dose: 120.0 mg/kg/injection, schedule: Q01DX005 (ip), vehicle: Klucel (hydroxypropylcellulose) (HPC)): 95 % of control
T/C (dose: 240.0 mg/kg/injection, schedule: Q01DX005 (ip), vehicle: Klucel (hydroxypropylcellulose) (HPC)): 91 % of control

CC1(C)CC(NC(=O)CCl)CC(C)(C)N1O
T/C [15]: 93 % of control
T/C [16]: 91 % of control
T/C (dose: 200.0 mg/kg/injection, schedule: Q01DX009 (ip), vehicle: saline): 102 % of control

Oc1ccc(Cl)cc1C1c2ccccc2Oc2ccccc21
T/C (dose: 50.0 mg/kg/injection, schedule: Q01DX009 (ip), vehicle: Klucel (hydroxypropylcellulose) (HPC)): 115 % of control
T/C (dose: 100.0 mg/kg/injection, schedule: Q01DX009 (ip), vehicle: Klucel (hydroxypropylcellulose) (HPC)): 108 % of control
